Measurements as given in US6417187B2, “1,2,4-triazole based compounds that can be used as insecticides or acaricides and processes” (Dow AgroSciences LLC, priority 2000, dated 2002).

Experiments:
Assay type in all cases: in vivo
[1] = system: beet armyworm (Spodoptera exigua); test: Insecticidal test for beet armyworm (treated lepidopteran diet); conditions: for pest or weed control at 400 ppm: Spodoptera exigua, 120 h, read-out: BAW: activity at 400 ppm against beet armyworm (% Control rating)
[2] = system: cabbage looper (Trichoplusia ni); test: Insecticidal test for cabbage looper (cabbage leaf-disc dip); conditions: for pest or weed control at 400 ppm: Trichoplusia ni, 120 h, read-out: CL: activity at 400 ppm against cabbage looper (% Control rating)
[3] = system: cotton aphid (Aphis gossvpii); test: Insecticidal test for cotton aphid (squash cotyledon spray); conditions: for pest or weed control at 50 ppm: 72 h, read-out: CA: activity at 50 ppm against cotton aphid (% Control rating)
[4] = system: two-spotted spider mite (Tetranychus urticae); test: Insecticidal test for two-spotted spider mite, ovicide method; conditions: 2.5 ppm (table footnote), ovicide method on cotton leaf discs, 6 days; for pest or weed control at 2.5 ppm: Tetranychus urticae, foliar, 144 h, read-out: SM: activity at 2.5 ppm against two-spotted spider mite (% Control rating)
[5] = system: Sweetpotato Whitefly (Bemisia tabacia); test: Insecticidal test for Sweetpotato Whitefly (cotton plant spray); conditions: for pest or weed control at 200 ppm: Bemisia, 312 h, read-out: WF: activity at 200 ppm against whitefly (% Control rating)
[6] = system: Brown Planthopper (Nilaparvata lugens); test: Insecticidal test for Brown Planthopper (rice seedling roots in test solution)
[7] = system: Green Leafhopper (Nephotettix cincticeps); test: Insecticidal test for Green Leafhopper (rice seedling roots in test solution)
[8] = system: tobacco budworm (Heliothis virescens); test: Insecticidal test for tobacco budworm (cotton cotyledon leaf-disc dip); conditions: for pest or weed control at 400 ppm: Heliothis virescens, 120 h, read-out: TBW: activity at 400 ppm against tobacco budworm (% Control rating)
[9] = 400 ppm, treated diet, second-instar larvae, 5 days
[10] = 400 ppm, cabbage leaf-dip, 2nd instar larvae, 5 days
[11] = 50 ppm spray on infested squash cotyledons, 3 days, population reduction versus untreated
[12] = 200 ppm spray on cotton plants, 13 days, reduction of large nymphs
[13] = 10 ppm test solution, rice seedling roots, 3rd instar nymphs, mortality at 6 days
[14] = 400 ppm, cotton cotyledon leaf-dip, 2nd instar larvae, 5 days

Compound	BAW: activity at 400 ppm against beet armyworm (% Control rating) [1, 9]	CL: activity at 400 ppm against cabbage looper (% Control rating) [2, 10]	CA: activity at 50 ppm against cotton aphid (% Control rating) [3, 11]	SM: activity at 2.5 ppm against two-spotted spider mite (% Control rating) [4]	WF: activity at 200 ppm against whitefly (% Control rating) [5, 12]	BPH: activity at 10 ppm against brown planthopper (% Control rating) [6, 13]	TBW: activity at 400 ppm against tobacco budworm (% Control rating) [8, 14]	also measured
CCCc1ccc(C#Cc2cc(C)c(-c3nc(-c4c(F)cccc4Cl)nn3C)s2)cc1 [Compound 72]	A (90-100)	B (80-89)	C (70-79)	F (less than 50)	F (less than 50)	F (less than 50)		
Cn1nc(-c2c(F)cccc2Cl)nc1-c1ccc(C#Cc2ccc(F)cc2)c(Cl)c1Cl [Compound 92]	A (90-100)	A (90-100)	A (90-100)	F (less than 50)	F (less than 50)	F (less than 50)		GLH: activity at 10 ppm against green leafbopper (% Control rating) [7, 13]: F (less than 50)
CCOc1ccc(C#Cc2sc(-c3nc(-c4c(F)cccc4Cl)nn3C)c(Cl)c2Cl)cc1C(F)(F)F [Compound 49]	A (90-100)	A (90-100)	F (less than 50)		F (less than 50)	F (less than 50)	D (60-69)	
Cn1nc(-c2c(F)cccc2Cl)nc1-c1sc(C#Cc2cccc(F)c2F)c(Cl)c1Cl [Compound 27]	A (90-100)	A (90-100)		F (less than 50)	D (60-69)	E (50-59)	D (60-69)	GLH: activity at 10 ppm against green leafbopper (% Control rating) [7, 13]: F (less than 50)
CCCCCCCc1ccc(C#Cc2sc(-c3nc(-c4c(F)cccc4Cl)nn3C)c(Cl)c2Cl)cc1 [Compound 55]								TBW: activity at 400 ppm against tobacco budworm (% Control rating) ([8]; in vivo): D (key: A: 90-100; B: 80-89; C: 70-79; D: 60-69; E: 50-59; F: less than 50; G: inactive); BAW: activity at 400 ppm against beet armyworm (% Control rating) ([1]; in vivo): A (key: A: 90-100; B: 80-89; C: 70-79; D: 60-69; E: 50-59; F: less than 50; G: inactive); CL: activity at 400 ppm against cabbage looper (% Control rating) ([2]; in vivo): A (key: A: 90-100; B: 80-89; C: 70-79; D: 60-69; E: 50-59; F: less than 50; G: inactive); CA: activity at 50 ppm against cotton aphid (% Control rating) ([3]; in vivo): F (key: A: 90-100; B: 80-89; C: 70-79; D: 60-69; E: 50-59; F: less than 50; G: inactive); WF: activity at 200 ppm against whitefly (% Control rating) ([5]; in vivo): F (key: A: 90-100; B: 80-89; C: 70-79; D: 60-69; E: 50-59; F: less than 50; G: inactive); BPH: activity at 10 ppm against brown planthopper (% Control rating) ([6]; in vivo): F (key: A: 90-100; B: 80-89; C: 70-79; D: 60-69; E: 50-59; F: less than 50; G: inactive); GLH: activity at 10 ppm against green leafbopper (% Control rating) ([7]; in vivo): F (key: A: 90-100; B: 80-89; C: 70-79; D: 60-69; E: 50-59; F: less than 50; G: inactive)
Cn1nc(-c2c(F)cccc2Cl)nc1-c1sc(C#CC(C)(C)C)c(Cl)c1Cl [Compound 3]								pest or weed control at 400 ppm [8, 14]: 60 to 69%; pest or weed control at 400 ppm [2, 10]: 90 to 100%; pest or weed control at 50 ppm [3, 11]: 90 to 100%; pest or weed control at 2.5 ppm [4]: 80 to 89%; pest or weed control at 200 ppm [5, 12]: < 50%
CCCCCCCOc1ccc(C#Cc2sc(-c3nc(-c4c(F)cccc4Cl)nn3C)c(Cl)c2Cl)cc1 [Compound 56]	A (90-100)	A (90-100)	E (50-59)		F (less than 50)	F (less than 50)	A (90-100)	
CCCCC#Cc1cncc(-c2nc(-c3c(Cl)cncc3Cl)nn2C)c1 [Compound 86]			E (50-59)	C (70-79)	F (less than 50)	F (less than 50)		GLH: activity at 10 ppm against green leafbopper (% Control rating) [7, 13]: F (less than 50)
Cn1nc(-c2c(F)cccc2Cl)nc1-c1ccc(C#C[Si](C)(C)C)c(Cl)c1Cl [Compound 96]	A (90-100)	A (90-100)	D (60-69)	D (60-69)	F (less than 50)		F (less than 50)	
CCCOc1ccc(C#Cc2sc(-c3nc(-c4c(F)cccc4Cl)nn3C)c(Cl)c2Cl)cc1 [Compound 15]	D (60-69)	D (60-69)	D (60-69)		F (less than 50)	F (less than 50)	F (less than 50)	GLH: activity at 10 ppm against green leafbopper (% Control rating) [7, 13]: F (less than 50)
CCCCCCc1ccc(C#Cc2sc(-c3nc(-c4c(F)cccc4Cl)nn3C)c(Cl)c2Cl)cc1 [Compound 54]								TBW: activity at 400 ppm against tobacco budworm (% Control rating) ([8]; in vivo): A (key: A: 90-100; B: 80-89; C: 70-79; D: 60-69; E: 50-59; F: less than 50; G: inactive); BAW: activity at 400 ppm against beet armyworm (% Control rating) ([1]; in vivo): A (key: A: 90-100; B: 80-89; C: 70-79; D: 60-69; E: 50-59; F: less than 50; G: inactive); CL: activity at 400 ppm against cabbage looper (% Control rating) ([2]; in vivo): B (key: A: 90-100; B: 80-89; C: 70-79; D: 60-69; E: 50-59; F: less than 50; G: inactive); CA: activity at 50 ppm against cotton aphid (% Control rating) ([3]; in vivo): E (key: A: 90-100; B: 80-89; C: 70-79; D: 60-69; E: 50-59; F: less than 50; G: inactive); WF: activity at 200 ppm against whitefly (% Control rating) ([5]; in vivo): F (key: A: 90-100; B: 80-89; C: 70-79; D: 60-69; E: 50-59; F: less than 50; G: inactive); BPH: activity at 10 ppm against brown planthopper (% Control rating) ([6]; in vivo): F (key: A: 90-100; B: 80-89; C: 70-79; D: 60-69; E: 50-59; F: less than 50; G: inactive); GLH: activity at 10 ppm against green leafbopper (% Control rating) ([7]; in vivo): F (key: A: 90-100; B: 80-89; C: 70-79; D: 60-69; E: 50-59; F: less than 50; G: inactive)
Cn1nc(-c2c(F)cccc2Cl)nc1-c1sc(C#Cc2ccccc2)c(Cl)c1Cl [Compound 4]						E (50-59)		pest or weed control at 400 ppm [8, 14]: < 50%; pest or weed control at 400 ppm [1, 9]: 90 to 100%; pest or weed control at 400 ppm [2, 10]: 90 to 100%; pest or weed control at 50 ppm [3, 11]: 80 to 89%; pest or weed control at 2.5 ppm [4]: 60 to 69%; pest or weed control at 200 ppm [5, 12]: < 50%
Cc1c(C#Cc2ccccc2)csc1-c1nc(-c2c(F)cccc2Cl)nn1C [Compound 67]	A (90-100)		A (90-100)	B (80-89)	F (less than 50)		B (80-89)	
CCN(CC)c1ncc(C#Cc2sc(-c3nc(-c4c(F)cccc4Cl)nn3C)c(Cl)c2Cl)cn1 [Compound 41]						E (50-59)		pest or weed control at 400 ppm [8, 14]: 60 to 69%; pest or weed control at 400 ppm [1, 9]: 90 to 100%; pest or weed control at 400 ppm [2, 10]: 80 to 89%; pest or weed control at 50 ppm [3, 11]: < 50%; pest or weed control at 2.5 ppm [4]: < 50%; pest or weed control at 200 ppm [5, 12]: < 50%
